Consider 71 compounds from patent US4130645A (priority 1978, dated 1978).

The structures appear in SMILES notation. Where “and” joins values, the source holds several entries; their conditions need not be identical. Equal entries are not always repeated. Structures can show the parent of a compound that is named as a salt.

The first series has as its system Venturia inaequalis (Cke.) Wint. In words: whole plant or invertebrate. In kind it is in vivo. Conditions: Venturia inaequalis, foliar, read-out: Apple Scab Percent Disease Control.
Turning to `O=[N+]([O-])Nc1cccc(Cl)c1Cl` [drawing 64], the pest or weed control at 200 ppm was determined as 67% and the pest or weed control at 500 ppm turned out to be 76%. In the case of `O=[N+]([O-])Nc1c(Br)cc(C(F)(F)F)cc1Br` [drawing 67], the pest or weed control at 500 ppm was determined as 76%. Take `O=[N+]([O-])Nc1c(Cl)c(Cl)cc(Cl)c1Cl` [drawing 69]: the pest or weed control at 500 ppm came to 76%. Take `COC(=O)CN(c1c(Cl)c(Cl)cc(Cl)c1Cl)[N+](=O)[O-]` [drawing 73]: the pest or weed control at 200 ppm is 83% and the pest or weed control at 500 ppm was 96%.

`CS(=O)(=O)c1ccc(N[N+](=O)[O-])cc1` [drawing 66]: the pest or weed control at 500 ppm is 76%. Same read-out and setting: then `O=[N+]([O-])Nc1ccccc1Cl`, with 93%; and `CC(=O)Nc1cc(Cl)c(N[N+](=O)[O-])c(Cl)c1` [drawing 68], with 76%.

The series is the same for the next values; noted with them: in vivo.
In the case of `COC(=O)CN(c1c(Cl)c(Cl)cc(Cl)c1Cl)[N+](=O)[O-]` [--CH2 COOCH3], the “activity against apple scab” value was “active”. On the same count and under the same terms, the result for `CC(C)N(c1c(Cl)c(Cl)cc(Cl)c1Cl)[N+](=O)[O-]` [--(CH(CH3)2] reads “active”; that for `O=[N+]([O-])Nc1c(Cl)c(Cl)cc(Cl)c1Cl` [2,3,5,6-tetrachlorophenylnitramine N-barium salt], “active”. Consider `O=[N+]([O-])Nc1ccc(Cl)cc1Cl` [2,4-dichlorophenylnitramine], for which the “activity against apple scab” value is given as “active”. Turning to `CC(=O)Nc1cc(Cl)c(N[N+](=O)[O-])c(Cl)c1` [2,6-dichloro-4-acetamidophenylnitramine], the “activity against apple scab” value is “active”. Regarding `CS(=O)(=O)c1ccc(N[N+](=O)[O-])cc1` [4-methylsulfonylphenylnitramine], the “activity against apple scab” value is “active”.

The test system of the next series is Podosphaera leucotricha (E&E) Salm. The series is described as follows: whole plant or invertebrate. The following applies: Podosphaera leucotricha, foliar, read-out: Apple Powdery Mildew Percent Disease Control. In kind it is in vivo.
On to `Cc1cc([N+](=O)[O-])cc(C)c1N[N+](=O)[O-]` [drawing 78], for which the pest or weed control at 500 ppm came to 84%. `O=[N+]([O-])Nc1ccc(Cl)c(C(F)(F)F)c1` [drawing 80]: the pest or weed control at 500 ppm came to 84%. For the compound `Cc1c(Cl)cccc1N[N+](=O)[O-]`, the pest or weed control at 500 ppm turned out to be 84%.

The series is the same for the next values; noted with them: in vivo.
Regarding `O=[N+]([O-])Nc1cccc(Cl)c1C(F)(F)F` [3-chloro-2-trifluoromethyl-], the “activity against apple powdery mildew” value is “active”. With `O=[N+]([O-])Nc1c(Cl)cccc1Cl` [2,6-dichloro-], the “activity against apple powdery mildew” value was “active”.

The next series deals with Erysiphe graminis f. sp. hordei. The series is described as follows: whole plant or invertebrate. In kind it is in vivo. The following applies: Blumeria graminis, in Hordeum vulgare, foliar, read-out: Barley Powdery Mildew Percent Disease Control.
For the compound `O=[N+]([O-])Nc1c(Cl)c(Cl)cc(Cl)c1Cl` [drawing 87], the pest or weed control at 50 ppm was 48% and the pest or weed control at 500 ppm came out at 84%.

`CC(C)OC(=O)Nc1cc(Cl)c(N[N+](=O)[O-])c(Cl)c1`: the pest or weed control at 200 ppm was 97%. Regarding `CCc1cccc(CC)c1N[N+](=O)[O-]`, the pest or weed control at 500 ppm was 100%. With `O=[N+]([O-])Nc1c(Br)cc(C(F)(F)F)cc1Br` [drawing 102], the pest or weed control at 200 ppm was found to be 83% and the pest or weed control at 500 ppm is 100%.

Consider `CCN(c1c(Br)cccc1Br)[N+](=O)[O-]`, for which the pest or weed control at 500 ppm was determined as 89%. The same measure, in the same setting: then `O=[N+]([O-])Nc1cccc(Cl)c1Cl` [drawing 89], with 100%; and `CN(c1c(Cl)c(Cl)cc(Cl)c1Cl)[N+](=O)[O-]`, with 100%.

`O=[N+]([O-])Nc1cccc(Br)c1` [drawing 99]: the pest or weed control at 500 ppm was 96%.

With `CS(=O)(=O)c1ccc(N[N+](=O)[O-])cc1` [drawing 93], the pest or weed control at 500 ppm is 100%.

Turning to `N#Cc1ccc(N[N+](=O)[O-])c(Br)c1`, the pest or weed control at 500 ppm came to 100%. In the case of `O=[N+]([O-])Nc1cc(Cl)c(Cl)c(Cl)c1Cl`, the pest or weed control at 500 ppm stood at 84%. `O=[N+]([O-])Nc1ccc(C(F)(F)F)cc1` [drawing 84]: the pest or weed control at 50 ppm came out at 84%, the pest or weed control at 100 ppm is 95%, the pest or weed control at 200 ppm was 91% and the pest or weed control at 500 ppm came to 96%. Take `O=[N+]([O-])Nc1c(Cl)cccc1Cl` [drawing 91]: the pest or weed control at 500 ppm stood at 100%. `O=[N+]([O-])N(Cc1ccccc1)c1c(Br)cccc1Br`: the pest or weed control at 500 ppm turned out to be 100%. For the compound `O=[N+]([O-])Nc1ccc(Cl)cc1Cl` [drawing 90], the pest or weed control at 500 ppm came to 100%. In the case of `CCC(=O)Nc1cc(Cl)c(N[N+](=O)[O-])c(Cl)c1` [drawing 108], the pest or weed control at 500 ppm was 100%. For the compound `CN(c1c(Br)cccc1Br)[N+](=O)[O-]`, the pest or weed control at 500 ppm turned out to be 89%. For `Cc1cc([N+](=O)[O-])cc(C)c1N[N+](=O)[O-]` [drawing 101], the pest or weed control at 500 ppm amounted to 100%. Consider `CC(=O)N(c1c(Cl)c(Cl)cc(Cl)c1Cl)[N+](=O)[O-]` [drawing 121], for which the pest or weed control at 50 ppm turned out to be 95%, the pest or weed control at 100 ppm was found to be 95%, the pest or weed control at 200 ppm worked out at 95% and the pest or weed control at 500 ppm stood at 100%.

As to `CC(C)N(c1c(Br)cccc1Br)[N+](=O)[O-]`, the pest or weed control at 500 ppm turned out to be 100%. For the compound `O=[N+]([O-])Nc1cccc(C(F)(F)F)c1`, the pest or weed control at 500 ppm worked out at 96%.

For `CC(=O)Nc1cc(Cl)c(N[N+](=O)[O-])c(Cl)c1` [drawing 107], the pest or weed control at 500 ppm came to 84%.

With `COC(=O)CN(c1c(Cl)c(Cl)cc(Cl)c1Cl)[N+](=O)[O-]` [drawing 122], the pest or weed control at 500 ppm amounted to 84%.

Still in this series, the particulars now being: in vivo.
`O=[N+]([O-])Nc1c(Cl)c(Cl)cc(Cl)c1Cl` [drawing 87]: the “Barley Powdery Mildew Percent Disease Control” value was determined as 71%.

As for `O=[N+]([O-])Nc1c(Cl)c(Cl)cc(Cl)c1Cl` [drawing 123], the “Barley Powdery Mildew Percent Disease Control” value is 98% and 96%. As for `CCC(=O)Nc1cc(Cl)c(N[N+](=O)[O-])c(Cl)c1` [drawing 112], the “Barley Powdery Mildew Percent Disease Control” value is listed as 89%. For `O=[N+]([O-])Nc1c(Cl)c(Cl)cc(Cl)c1Cl` [drawing 100], the “Barley Powdery Mildew Percent Disease Control” value is 100% and 95%. As for `O=[N+]([O-])Nc1c(Cl)c(Cl)cc(Cl)c1Cl` [drawing 118], the “Barley Powdery Mildew Percent Disease Control” value stood at 100%.

Test system in another series: not listed separately
The series is described as follows: Thermal decomposition point (Differential Thermal Analyzer). In kind it is physicochemical. Conditions: 20° C./min, onset method. Here is the method: By the procedure of Examples 2 and 5 the following novel salts of 2,3,5,6-tetrachloro-N-nitroaniline are prepared as listed in Table II below. The melting points (uncorrected) of said salts are determined on a Thomas Hoover Capillary Melting Point Apparatus; while the thermal decomposition points of said salts are determined on a Dupont 900 Differential Thermal Analyzer. […] Decompositions are recorded by an exothermic response and the temperatures given in Table II below are assessed by the "onset method".
Regarding `O=[N+]([O-])Nc1c(Cl)c(Cl)cc(Cl)c1Cl` [drawing 23], the “Thermal Decomposition Point” value worked out at 163 °C.

Take `O=[N+]([O-])Nc1c(Cl)c(Cl)cc(Cl)c1Cl` [K]: the “Thermal Decomposition Point” value turned out to be 272 °C. For the compound `O=[N+]([O-])Nc1c(Cl)c(Cl)cc(Cl)c1Cl` [NH3 CH3], the “Thermal Decomposition Point” value worked out at 183 °C. The same measure, in the same setting: then `O=[N+]([O-])Nc1c(Cl)c(Cl)cc(Cl)c1Cl` [NH(CH3)2 . C6 H5, N,N-dimethylaniline salt of 2,3,5,6-tetrachloro-N-nitroaniline], with 128 °C. `O=[N+]([O-])Nc1c(Cl)c(Cl)cc(Cl)c1Cl` [NHC18 H37 . (CH2 CH2 O)2 H . (CH2 CH2 O)3 H]: the “Thermal Decomposition Point” value is 153-157 °C. With `O=[N+]([O-])Nc1c(Cl)c(Cl)cc(Cl)c1Cl` [NH2 (C3 H7)2], the “Thermal Decomposition Point” value was determined as 204 °C. Consider `O=[N+]([O-])Nc1c(Cl)c(Cl)cc(Cl)c1Cl` [NH3 CH2 CH2 NH2], for which the “Thermal Decomposition Point” value is 208 °C. As to `O=[N+]([O-])Nc1c(Cl)c(Cl)cc(Cl)c1Cl` [NH3 C8 H17], the “Thermal Decomposition Point” value was 163 °C. Take `O=[N+]([O-])Nc1c(Cl)c(Cl)cc(Cl)c1Cl` [NH3 C12 H25 -n]: the “Thermal Decomposition Point” value is 166 °C. For `O=[N+]([O-])Nc1c(Cl)c(Cl)cc(Cl)c1Cl` [NH(C3 H7)3], the “Thermal Decomposition Point” value came to 154 °C. As for `O=[N+]([O-])Nc1c(Cl)c(Cl)cc(Cl)c1Cl` [NH3 (CH2)3 NHC12 H25 -n], the “Thermal Decomposition Point” value is 184 °C. For the compound `O=[N+]([O-])Nc1c(Cl)c(Cl)cc(Cl)c1Cl` [NH4], the “Thermal Decomposition Point” value came to 178 °C. Take `O=[N+]([O-])Nc1c(Cl)c(Cl)cc(Cl)c1Cl` [drawing 22]: the “Thermal Decomposition Point” value is 143 °C. Still for that read-out and setting: the result for `O=[N+]([O-])Nc1c(Cl)c(Cl)cc(Cl)c1Cl` [drawing 24] reads 138 °C; that for `O=[N+]([O-])Nc1c(Cl)c(Cl)cc(Cl)c1Cl` [drawing 26], 203 °C. Same read-out and setting: the result for `O=[N+]([O-])Nc1c(Cl)c(Cl)cc(Cl)c1Cl` [NH3 C16 H33] reads 148.5 °C. With `O=[N+]([O-])Nc1c(Cl)c(Cl)cc(Cl)c1Cl` [NH2 (C4 H9)2], the “Thermal Decomposition Point” value stood at 207 °C. Regarding `O=[N+]([O-])Nc1c(Cl)c(Cl)cc(Cl)c1Cl` [NH2 (C18 H37)2], the “Thermal Decomposition Point” value was determined as 168 °C.

As for `O=[N+]([O-])Nc1c(Cl)c(Cl)cc(Cl)c1Cl` [NH(C2 H5)3], the “Thermal Decomposition Point” value turned out to be 169 °C. `O=[N+]([O-])Nc1c(Cl)c(Cl)cc(Cl)c1Cl` [drawing 21]: the “Thermal Decomposition Point” value came to 176 °C. On the same count and under the same terms, then `O=[N+]([O-])Nc1c(Cl)c(Cl)cc(Cl)c1Cl` [NH3 CH2 CH2 OH, ethanolamine salt of 2,3,5,6-tetrachloro-N-nitroaniline], with 203 °C. As for `O=[N+]([O-])Nc1c(Cl)c(Cl)cc(Cl)c1Cl` [NH(CH2 CH2 OH)3], the “Thermal Decomposition Point” value worked out at 150 °C. As to `O=[N+]([O-])Nc1c(Cl)c(Cl)cc(Cl)c1Cl` [NH2 (CH2C6 H5)2, dibenzylamine salt of 2,3,5,6-tetrachloro-N-nitroaniline], the “Thermal Decomposition Point” value came out at 183 °C. Consider `O=[N+]([O-])Nc1c(Cl)c(Cl)cc(Cl)c1Cl` [NH2 (CH2 CH2 OH)2], for which the “Thermal Decomposition Point” value is 173 °C and 177 °C.

Consider `O=[N+]([O-])Nc1c(Cl)c(Cl)cc(Cl)c1Cl` [drawing 25], for which the “Thermal Decomposition Point” value came out at 173 °C.

With `O=[N+]([O-])Nc1c(Cl)c(Cl)cc(Cl)c1Cl` [NH3 (CH2)8 CHCH(CH2)7 CH3], the “Thermal Decomposition Point” value turned out to be 157 °C.
